Holding throughout (assay type): cell-based
Assay [1] has as its system Calu-1 cells. The assay can be described thus: Anti-proliferation (viability) of NSCLC Calu-1 cells, 3 days (Table 7, FIG. 2B). The conditions noted are these: Homo sapiens, 72 h; Calu-1 cells, 3 days, 10-point serial dilution; read-out: GI IC50 in Calu-1. A digest of the protocol:
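Heterobifunctional compounds are tested in 10-point serial dilutions on Calu-1 (3-day exposure) and T47D (6-day exposure) cells.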

The subject of assay [2] is T47D cells. The assay can be described thus: Anti-proliferation (viability) of ER+ breast cancer T47D cells, 6 days (Table 7, FIG. 2B). The conditions noted are these: Homo sapiens, 144 h; T47D cells, 6 days, 10-point serial dilution; read-out: GI IC50 in T47D. As to the method: To evaluate anti-proliferation activities of heterobifunctional compounds, NSCLC Calu-1 or ER+ breast cancer T47D cells were treated with selected heterobifunctional compounds following a 10-point serial dilution for 3 or 6 days, respectively.
To verify that heterobifunctional compound-mediated degradation is dependent on the binding to CDK4-cyclin D complex, a negative control compound, CPD-143, which is derived from active heterobifunctional compound CPD-10 was designed. CPD-143 bears the same DDB1 ligand and linker as CPD-10 but with a modified warhead to impair the binding of the control compound to CDK4.

Assay [3] has as its target T1, CDK4 (Homo sapiens, UniProt P11802+Q16531). The assay can be described thus: CDK4 percentage degradation in Calu-1 cells (Table 6). More on the design: Cells that express cyclin D1-3 and CDK4/6 proteins were treated with heterobifunctional compounds; endogenous in cells; host or cells: Calu-1. As to conditions: 16 hours; for inhibition at 0.04 µM: 40 nM; for inhibition at 0.2 µM: 200 nM. A digest of the protocol: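 Calu-1 cells exposed to heterobifunctional compounds at 40 nM or 200 nM for 16 h. Cyclin D1 and CDK4 levels measured by Western blot of RIPA lysates (BCA-normalised loading), bands quantified by densitometry and expressed as percentage degradation.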
Target sequence in this assay (P11802 2-303 limits assumed): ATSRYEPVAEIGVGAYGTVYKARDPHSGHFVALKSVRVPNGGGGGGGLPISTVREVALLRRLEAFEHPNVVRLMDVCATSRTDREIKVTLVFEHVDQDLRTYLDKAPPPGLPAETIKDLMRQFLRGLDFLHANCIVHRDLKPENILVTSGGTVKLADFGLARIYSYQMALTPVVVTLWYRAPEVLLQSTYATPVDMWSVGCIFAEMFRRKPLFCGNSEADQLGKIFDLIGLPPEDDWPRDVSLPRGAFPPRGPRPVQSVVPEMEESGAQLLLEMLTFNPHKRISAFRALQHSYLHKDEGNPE
Target sequence in this assay (P24385 whole entry partner): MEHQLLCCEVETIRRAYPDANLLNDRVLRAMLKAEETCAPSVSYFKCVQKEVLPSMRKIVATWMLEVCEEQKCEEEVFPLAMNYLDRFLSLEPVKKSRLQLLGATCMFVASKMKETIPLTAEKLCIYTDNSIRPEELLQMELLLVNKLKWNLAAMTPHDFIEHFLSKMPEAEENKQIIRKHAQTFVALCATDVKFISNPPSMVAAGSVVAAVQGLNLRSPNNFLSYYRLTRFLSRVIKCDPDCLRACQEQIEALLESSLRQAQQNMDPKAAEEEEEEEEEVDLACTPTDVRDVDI
Target sequence in this assay (Q16531 2-1140 limits assumed): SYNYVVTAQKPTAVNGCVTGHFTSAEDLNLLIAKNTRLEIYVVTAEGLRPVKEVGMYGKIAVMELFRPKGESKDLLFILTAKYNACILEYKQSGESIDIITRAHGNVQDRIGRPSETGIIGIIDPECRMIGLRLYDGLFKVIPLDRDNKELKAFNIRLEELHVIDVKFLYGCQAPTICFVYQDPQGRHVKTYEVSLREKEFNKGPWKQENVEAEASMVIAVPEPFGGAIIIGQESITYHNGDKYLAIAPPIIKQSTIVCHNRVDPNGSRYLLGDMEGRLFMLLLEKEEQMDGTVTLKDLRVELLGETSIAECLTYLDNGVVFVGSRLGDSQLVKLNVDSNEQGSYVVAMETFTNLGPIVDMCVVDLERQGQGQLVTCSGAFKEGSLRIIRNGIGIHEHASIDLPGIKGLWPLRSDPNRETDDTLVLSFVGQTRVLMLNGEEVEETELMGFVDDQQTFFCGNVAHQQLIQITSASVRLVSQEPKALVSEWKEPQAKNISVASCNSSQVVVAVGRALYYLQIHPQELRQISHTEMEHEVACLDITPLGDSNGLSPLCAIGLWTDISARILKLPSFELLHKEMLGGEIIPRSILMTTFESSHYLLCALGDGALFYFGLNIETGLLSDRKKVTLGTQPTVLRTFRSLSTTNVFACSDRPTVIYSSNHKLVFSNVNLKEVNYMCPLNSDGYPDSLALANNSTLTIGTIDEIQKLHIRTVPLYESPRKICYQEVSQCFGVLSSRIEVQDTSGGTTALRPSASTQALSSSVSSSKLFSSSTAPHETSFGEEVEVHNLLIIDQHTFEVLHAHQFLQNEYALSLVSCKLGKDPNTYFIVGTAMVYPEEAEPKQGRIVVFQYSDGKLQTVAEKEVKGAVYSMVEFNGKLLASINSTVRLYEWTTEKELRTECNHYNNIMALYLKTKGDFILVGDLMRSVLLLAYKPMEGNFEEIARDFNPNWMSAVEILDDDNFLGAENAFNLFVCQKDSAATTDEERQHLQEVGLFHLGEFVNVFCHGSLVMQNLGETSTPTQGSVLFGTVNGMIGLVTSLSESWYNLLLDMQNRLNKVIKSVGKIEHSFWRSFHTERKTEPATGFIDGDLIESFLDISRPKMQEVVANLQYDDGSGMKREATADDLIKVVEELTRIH

Assay [4] concerns MCF7 cells. The assay can be described thus: Anti-proliferation (viability) of MCF7 cells (Table 7, FIG. 2B). The conditions noted are these: Homo sapiens, MCF7, MCF7 cells, 3-6 days, 10-point serial dilution; read-out: GI IC50 in MCF-7.
Assay [5] concerns the target T1, CDK4. The assay can be described thus: HiBiT detection of HiBiT-tagged CDK4 protein level in MCF7 cells, 16 hours (Table 8). As to conditions: MCF7 cells stably expressing HiBiT tagged target proteins. Set-up: expressed in transfected cells; host or cells: MCF7. As to the method: HiBiT detection system quantitatively measures total amounts of HiBiT-tagged proteins using a luminescent based method. MCF7 cells stably expressing HiBiT tagged target proteins were treated with heterobifunctional compounds at indicated concentrations for 16 hours, then lysed with Nano-Glo HiBiT Lytic detection reagents.
Target sequence in this assay (P11802 whole entry): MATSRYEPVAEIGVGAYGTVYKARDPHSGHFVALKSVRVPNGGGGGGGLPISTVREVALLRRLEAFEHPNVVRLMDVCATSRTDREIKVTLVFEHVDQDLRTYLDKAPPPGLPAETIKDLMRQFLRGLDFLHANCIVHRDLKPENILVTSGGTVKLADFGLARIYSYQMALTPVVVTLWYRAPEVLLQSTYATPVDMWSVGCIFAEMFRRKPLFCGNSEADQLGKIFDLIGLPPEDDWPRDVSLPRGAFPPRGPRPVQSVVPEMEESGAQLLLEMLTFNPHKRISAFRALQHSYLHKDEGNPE
Target sequence in this assay (P24385 whole entry partner): as the sequence (P24385 whole entry partner) above
Target sequence in this assay (Q16531 2-1140 limits assumed): as the sequence (Q16531 2-1140 limits assumed) above
On the technique in general: HiBiT is a short tag that completes a luciferase, so light tracks the accessible tagged protein.

Experimental findings from US20260297081A1, “COMPOUNDS AND METHODS OF TREATING CANCERS” (Cullgen Inc., priority 2023, published 2026) are described below.

SMILES strings stand for the structures.

Regarding `CNc1ccc(C(=O)Nc2cccc(C)n2)c(NC2CC3(CC(NC(=O)CN4CCN(c5ccc(Nc6ncc7c(C)c(C(C)=O)c(=O)n(C8CCCC8)c7n6)nc5)CC4)C3)C2)n1` (centres unmarked) [CPD-75, 2-((6-(2-(4-(6-((6-Acetyl-8-cyclopentyl-5-methyl-7-oxo-7,8-dihydropyrido[2,3-d]pyrimidin-2-yl)amino)pyridin-3-yl)piperazin-1-yl)acetamido)spiro[3.3]heptan-2-yl)amino)-6-(methylamino)-N-(6-methylpyridin-2-yl)nicotinamide], the IC50 in assay [1] lay in the range of 10 to 50 nM. The IC50 in assay [2] was ≤ 50 nM. Moreover, in assay [3], the inhibition at 0.04 µM fell in the range of 30 to 50% and the inhibition at 0.2 µM fell in the range of 50 to 80%.

Turning to `CC(=O)c1c(C)c2cnc(Nc3ccc(N4CCN(CC(=O)NCCCCCNc5nc(NC(C)(C)C)ccc5C(=O)Nc5ccc(N(C)C)nn5)CC4)cn3)nc2n(C2CCCC2)c1=O` [CPD-85, 2-((5-(2-(4-(6-((6-Acetyl-8-cyclopentyl-5-methyl-7-oxo-7,8-dihydropyrido[2,3-d]pyrimidin-2-yl)amino)pyridin-3-yl)piperazin-1-yl)acetamido)pentyl)amino)-6-(tert-butylamino)-N-(6-(dimethylamino)pyridazin-3-yl)nicotinamide], the IC50 in assay [1] was ≤ 10 nM. Also, in assay [2], the IC50 was 50 to 100 nM. Moreover, in assay [3], the inhibition at 0.04 µM was < 30% and the inhibition at 0.2 µM is 50 to 80%.

Take `CC(=O)c1c(C)c2cnc(Nc3ccc(N4CCN(CC(=O)NC5CC6(C5)CC(Nc5nc(NC(C)C)ccc5C(=O)Nc5cn(C)c(C7CC7)n5)C6)CC4)cn3)nc2n(C2CCCC2)c1=O` (centres unmarked) [CPD-222, 2-((6-(2-(4-(6-((6-acetyl-8-cyclopentyl-5-methyl-7-oxo-7,8-dihydropyrido[2,3-d]pyrimidin-2-yl)amino)pyridin-3-yl)piperazin-1-yl)acetamido)spiro[3.3]heptan-2-yl)amino)-N-(2-cyclopropyl-1-methyl-1H-imidazol-4-yl)-6-(isopropylamino)nicotinamide]: the IC50 in assay [2] is ≤ 50 nM; in assay [4], 50 to 100 nM. For the same molecule, the inhibition at 0.04 µM in assay [3] lay within 50 to 80%. Also, the inhibition at 0.2 µM in assay [3] was in the range of 50 to 80%.

On to `CC(=O)c1c(C)c2cnc(Nc3ccc(N4CCN(CC(=O)NCCCCCNc5nc(C#N)ccc5C(=O)Nc5ccc(N(C)C)nn5)CC4)cn3)nc2n(C2CCCC2)c1=O` [CPD-28, 2-((5-(2-(4-(6-((6-Acetyl-8-cyclopentyl-5-methyl-7-oxo-7,8-dihydropyrido[2,3-d]pyrimidin-2-yl)amino)pyridin-3-yl)piperazin-1-yl)acetamido)pentyl)amino)-6-cyano-N-(6-(dimethylamino)pyridazin-3-yl)nicotinamide], for which, in assay [1], the IC50 is 10 to 50 nM. In assay [2], the IC50 is ≤ 50 nM. Moreover, in assay [3], the inhibition at 0.04 µM fell in the range of 50 to 80% and the inhibition at 0.2 µM lay in the range of 50 to 80%.

With `CNc1ccc(C(=O)Nc2cn(C)c(C3CC3)n2)c(NC2CC(CNC(=O)CN3CCN(c4ccc(Nc5ncc6c(C)c(C(C)=O)c(=O)n(C7CCCC7)c6n5)nc4)CC3)C2)n1` (centres unmarked) [CPD-254, 2-((3-((2-(4-(6-((6-acetyl-8-cyclopentyl-5-methyl-7-oxo-7,8-dihydropyrido[2,3-d]pyrimidin-2-yl)amino)pyridin-3-yl)piperazin-1-yl)acetamido)methyl)cyclobutyl)amino)-N-(2-cyclopropyl-1-methyl-1H-imidazol-4-yl)-6-(methylamino)nicotinamide], the values for the IC50 in assay [2] and in assay [4] were ≥ 100 nM and > 100 nM, respectively.

Regarding `CNc1ccc(C(=O)Nc2ccc(C)c(C3CC3)n2)c(NC2CC3(CC(NC(=O)CN4CCN(c5ccc(Nc6ncc7c(C)c(C(C)=O)c(=O)n(C8CCCC8)c7n6)nc5)CC4)C3)C2)n1` (centres unmarked) [CPD-57, 2-((6-(2-(4-(6-((6-Acetyl-8-cyclopentyl-5-methyl-7-oxo-7,8-dihydropyrido[2,3-d]pyrimidin-2-yl)amino)pyridin-3-yl)piperazin-1-yl)acetamido)spiro[3.3]heptan-2-yl)amino)-N-(6-cyclopropyl-5-methylpyridin-2-yl)-6-(methylamino)nicotinamide], in assay [1], the IC50 is 10 to 50 nM. Also, the IC50 in assay [2] lay within 50 to 100 nM. For the same molecule, in assay [3], the inhibition at 0.04 µM fell in the range of 30 to 50% and the inhibition at 0.2 µM is > 80%.

For `CNc1ccc(C(=O)Nc2ccc(N(C)C)nn2)c(NCCCCNC(=O)CCN2CCN(c3ccc(Nc4ncc5c(C)c(C(C)=O)c(=O)n(C6CCCC6)c5n4)nc3)CC2)n1` [CPD-37, 2-((4-(3-(4-(6-((6-acetyl-8-cyclopentyl-5-methyl-7-oxo-7,8-dihydropyrido[2,3-d]pyrimidin-2-yl)amino)pyridin-3-yl)piperazin-1-yl)propanamido)butyl)amino)-N-(6-(dimethylamino)pyridazin-3-yl)-6-(methylamino)nicotinamide], the IC50 in assay [1] was 10 to 50 nM. In addition, in assay [2], the IC50 is ≥ 100 nM. In assay [3], this molecule displayed an inhibition at 0.04 µM of 50 to 80% and an inhibition at 0.2 µM of 50 to 80%.

With `CNc1ccc(C(=O)Nc2ccc(N(C)C)nn2)c(NC2CC(CNC(=O)CCN3CCN(c4ccc(Nc5ncc6c(C)c(C(C)=O)c(=O)n(C7CCCC7)c6n5)nc4)CC3)C2)n1` (centres unmarked) [CPD-80, 2-((3-((3-(4-(6-((6-Acetyl-8-cyclopentyl-5-methyl-7-oxo-7,8-dihydropyrido[2,3-d]pyrimidin-2-yl)amino)pyridin-3-yl)piperazin-1-yl)propanamido)methyl)cyclobutyl)amino)-N-(6-(dimethylamino)pyridazin-3-yl)-6-(methylamino)nicotinamide], the results for the IC50 in assay [1] and in assay [2] were ≤ 10 nM and ≤ 50 nM, respectively. For the same molecule, the inhibition at 0.04 µM in assay [3] fell in the range of 50 to 80%. Further, in assay [3], the inhibition at 0.2 µM is 50 to 80%.

For `CNc1ccc(C(=O)Nc2ccc(N(C)C)nn2)c(NC2CCN(C(=O)CCN3CCN(c4ccc(Nc5ncc6c(C)c(C(C)=O)c(=O)n(C7CCCC7)c6n5)nc4)CC3)C2)n1` (centres unmarked) [CPD-218, 2-((1-(3-(4-(6-((6-acetyl-8-cyclopentyl-5-methyl-7-oxo-7,8-dihydropyrido[2,3-d]pyrimidin-2-yl)amino)pyridin-3-yl)piperazin-1-yl)propanoyl)pyrrolidin-3-yl)amino)-N-(6-(dimethylamino)pyridazin-3-yl)-6-(methylamino)nicotinamide], in assay [2], the IC50 is 50 to 100 nM. Besides, the IC50 in assay [4] was in the range of 50 to 100 nM. Further, in assay [3], the inhibition at 0.04 µM is 50 to 80% and the inhibition at 0.2 µM fell in the range of 50 to 80%.

`CNc1ccc(C(=O)Nc2ccc(N(C)C)nn2)c(NC2CCC(NC(=O)CN3CCN(c4ccc(Nc5ncc6c(C)c(C(C)=O)c(=O)n(C7CCCC7)c6n5)nc4)CC3)C2)n1` (centres unmarked) [CPD-219, 2-((3-(2-(4-(6-((6-acetyl-8-cyclopentyl-5-methyl-7-oxo-7,8-dihydropyrido[2,3-d]pyrimidin-2-yl)amino)pyridin-3-yl)piperazin-1-yl)acetamido)cyclopentyl)amino)-N-(6-(dimethylamino)pyridazin-3-yl)-6-(methylamino)nicotinamide]: the IC50 in assay [2] lay in the range of 50 to 100 nM. Besides, in assay [4], the IC50 lay within 50 to 100 nM. Also, in assay [3], the inhibition at 0.04 µM lay in the range of 50 to 80% and the inhibition at 0.2 µM is 50 to 80%.

Consider `CC(=O)c1c(C)c2cnc(Nc3ccc(N4CCN(CC(=O)NCC5CC(Nc6nc(C)ccc6C(=O)Nc6cc(C)n(C)n6)C5)CC4)cn3)nc2n(C2CCCC2)c1=O` (centres unmarked) [CPD-209, 2-((3-((2-(4-(6-((6-acetyl-8-cyclopentyl-5-methyl-7-oxo-7,8-dihydropyrido[2,3-d]pyrimidin-2-yl)amino)pyridin-3-yl)piperazin-1-yl)acetamido)methyl)cyclobutyl)amino)-N-(1,5-dimethyl-1H-pyrazol-3-yl)-6-methylnicotinamide], for which the IC50 in assay [2] is ≥ 100 nM. In assay [3], this molecule gave an inhibition at 0.04 µM of 30 to 50% and an inhibition at 0.2 µM of 50 to 80%.

Turning to `CC(=O)c1c(C)c2cnc(Nc3ccc(N4CCN(CC(=O)NC5CC6(C5)CC(Nc5nc(NC(C)C)ccc5C(=O)Nc5cc(C)n(C)n5)C6)CC4)cn3)nc2n(C2CCCC2)c1=O` (centres unmarked) [CPD-253, 2-((6-(2-(4-(6-((6-acetyl-8-cyclopentyl-5-methyl-7-oxo-7,8-dihydropyrido[2,3-d]pyrimidin-2-yl)amino)pyridin-3-yl)piperazin-1-yl)acetamido)spiro[3.3]heptan-2-yl)amino)-N-(1,5-dimethyl-1H-pyrazol-3-yl)-6-(isopropylamino)nicotinamide], the IC50 in assay [2] is ≥ 100 nM. The IC50 in assay [4] is < 50 nM. Besides, in assay [5] (10 nM, read-out: % CDK4 Relative Level (10 nM)), the activity at 0.01 µM is > 85%. Moreover, in assay [5] (100 nM, read-out: % CDK4 Relative Level (100 nM)), the activity at 0.1 µM lay in the range of 55 to 85%. Further, in assay [3], the inhibition at 0.04 µM is < 30% and the inhibition at 0.2 µM is < 30%.

For orientation: IC50 means the midpoint of a concentration-inhibition curve. A word on the inhibition: it is the share of the control response that was lost under treatment. Read a high inhibition as strong suppression.
